ChEMBL document CHEMBL5226390, “Synthesis and Structure-Activity Analysis of Icaritin Derivatives as Potential Tumor Growth Inhibitors of Hepatocellular Carcinoma Cells” (J Nat Prod, 2023)

Tests used:
Format in all cases: functional, cell-based
HepG2 = assay: Antiproliferative activity against human HepG2 cells assessed as reduction in cell viability incubated for 48 hrs by MTT assay; conditions: HepG2, 48 h
Hep 3B2 = assay: Antiproliferative activity against human Hep3B cells assessed as reduction in cell viability incubated for 48 hrs by MTT assay
SMMC-7721 = assay: Antiproliferative activity against human SMMC-7721 cells assessed as reduction in cell viability incubated for 48 hrs by MTT assay
[1] = Homo sapiens, SMMC-7721, 48 h, read-out: IC50

COc1ccc(-c2oc3c(CC=C(C)C)c(OCCCCN4CCCC4)cc(O)c3c(=O)c2O[C@H]2O[C@H](C)[C@@H](O)[C@H](O)[C@@H]2O)cc1
IC50 (HepG2): 3 µM | IC50 (Hep 3B2): 4 µM | IC50 (SMMC-7721; [1]): > 10 µM

COc1ccc(-c2oc3c(CC=C(C)C)c(OCCCCCCN4CCCC4)cc(O)c3c(=O)c2O[C@H]2O[C@H](C)[C@@H](O)[C@H](O)[C@@H]2O)cc1
IC50 (HepG2): 2.5 µM | IC50 (Hep 3B2): 7.6 µM | IC50 (SMMC-7721; [1]): 4.8 µM

COc1ccc(-c2oc3c(CC=C(C)C)c(OCCOCCN4CCNCC4)cc(O)c3c(=O)c2O[C@H]2O[C@H](C)[C@@H](O)[C@H](O)[C@@H]2O)cc1
IC50 (HepG2): > 10 µM | IC50 (Hep 3B2): > 10 µM | IC50 (SMMC-7721; smmc-7721): Not Active

CCN(CC)CCOCCOCCOCCOc1cc(O)c2c(=O)c(O[C@H]3O[C@H](C)[C@@H](O)[C@H](O)[C@@H]3O)c(-c3ccc(OC)cc3)oc2c1CC=C(C)C
IC50 (HepG2): 7.1 µM | IC50 (Hep 3B2): 7.2 µM | IC50 (SMMC-7721; [1]): > 10 µM

COc1ccc(-c2oc3c(CC=C(C)C)c(OCCCCN)cc(O)c3c(=O)c2O[C@H]2O[C@H](C)[C@@H](O)[C@H](O)[C@@H]2O)cc1
IC50 (HepG2): 4.7 µM | IC50 (Hep 3B2): 4.9 µM | IC50 (SMMC-7721; [1]): > 10 µM

COc1ccc(-c2oc3c(CC=C(C)C)c(OCCN4CCOCC4)cc(O)c3c(=O)c2O[C@H]2O[C@H](C)[C@@H](O)[C@H](O)[C@@H]2O)cc1
IC50 (HepG2): > 10 µM | IC50 (Hep 3B2): 6.1 µM | IC50 (SMMC-7721; smmc-7721): Not Active

CCN(CC)CCCCOc1cc(O)c2c(=O)c(O[C@H]3O[C@H](C)[C@@H](O)[C@H](O)[C@@H]3O)c(-c3ccc(OC)cc3)oc2c1CC=C(C)C
IC50 (HepG2): 3.8 µM | IC50 (Hep 3B2): 5.4 µM | IC50 (SMMC-7721; [1]): 6.4 µM

CCCCN(CCCC)CCOc1cc(O)c2c(=O)c(O[C@H]3O[C@H](C)[C@@H](O)[C@H](O)[C@@H]3O)c(-c3ccc(OC)cc3)oc2c1CC=C(C)C
IC50 (HepG2): > 10 µM | IC50 (Hep 3B2): > 10 µM | IC50 (SMMC-7721; smmc-7721): Not Active

COc1ccc(-c2oc3c(CC=C(C)C)c(OCCN4CCC(N5CCCCC5)CC4)cc(O)c3c(=O)c2O[C@H]2O[C@H](C)[C@@H](O)[C@H](O)[C@@H]2O)cc1
IC50 (HepG2): > 10 µM | IC50 (Hep 3B2): > 10 µM | IC50 (SMMC-7721; smmc-7721): Not Active

COc1ccc(-c2oc3c(CC=C(C)C)c(OCCCC(=O)NO)cc(O)c3c(=O)c2O[C@H]2O[C@H](C)[C@@H](O)[C@H](O)[C@@H]2O)cc1
IC50 (HepG2): > 10 µM | IC50 (Hep 3B2): > 10 µM | IC50 (SMMC-7721; [1]): > 10 µM

COc1ccc(-c2oc3c(CC=C(C)C)c(OCCCN4CCC(C)CC4)cc(O)c3c(=O)c2O[C@H]2O[C@H](C)[C@@H](O)[C@H](O)[C@@H]2O)cc1
IC50 (HepG2): > 10 µM | IC50 (Hep 3B2): > 10 µM | IC50 (SMMC-7721; smmc-7721): Not Active

CNC(=O)c1cc(Oc2ccc(NC(=O)Nc3ccc(Cl)c(C(F)(F)F)c3)cc2)ccn1 [SORAFENIB]
IC50 (HepG2): 5.5 µM | IC50 (Hep 3B2): 7.7 µM | IC50 (SMMC-7721; [1]): 8.8 µM

CCN(CC)C[C@@H](O)COc1cc(O)c2c(=O)c(O[C@H]3O[C@H](C)[C@@H](O)[C@H](O)[C@@H]3O)c(-c3ccc(OC)cc3)oc2c1CC=C(C)C
IC50 (HepG2): > 10 µM | IC50 (Hep 3B2): 8.3 µM | IC50 (SMMC-7721; [1]): > 10 µM

CCCCN(CCCC)CCCCOc1cc(O)c2c(=O)c(O[C@H]3O[C@H](C)[C@@H](O)[C@H](O)[C@@H]3O)c(-c3ccc(OC)cc3)oc2c1CC=C(C)C
IC50 (HepG2): 9.8 µM | IC50 (Hep 3B2): > 10 µM | IC50 (SMMC-7721; smmc-7721): Not Active

COc1ccc(-c2oc3c(CC=C(C)C)c(OCCCCCC(=O)NO)cc(O)c3c(=O)c2O[C@H]2O[C@H](C)[C@@H](O)[C@H](O)[C@@H]2O)cc1
IC50 (HepG2): > 10 µM | IC50 (Hep 3B2): > 10 µM | IC50 (SMMC-7721; [1]): > 10 µM

COc1ccc(-c2oc3c(CC=C(C)C)c(OCCCCN4CCC(C)CC4)cc(O)c3c(=O)c2O[C@H]2O[C@H](C)[C@@H](O)[C@H](O)[C@@H]2O)cc1
IC50 (HepG2): > 10 µM | IC50 (Hep 3B2): > 10 µM | IC50 (SMMC-7721; smmc-7721): Not Active

COc1ccc(-c2oc3c(CC=C(C)C)c(OCCCCN4CCOCC4)cc(O)c3c(=O)c2O[C@H]2O[C@H](C)[C@@H](O)[C@H](O)[C@@H]2O)cc1
IC50 (HepG2): > 10 µM | IC50 (Hep 3B2): > 10 µM | IC50 (SMMC-7721; smmc-7721): Not Active

COc1ccc(-c2oc3c(CC=C(C)C)c(OCCCCC(=O)NO)cc(O)c3c(=O)c2O[C@H]2O[C@H](C)[C@@H](O)[C@H](O)[C@@H]2O)cc1
IC50 (HepG2): > 10 µM | IC50 (Hep 3B2): > 10 µM | IC50 (SMMC-7721; [1]): > 10 µM

COc1ccc(-c2oc3c(CC=C(C)C)c(OCCOCCOCCOCCN4CCCC4)cc(O)c3c(=O)c2O[C@H]2O[C@H](C)[C@@H](O)[C@H](O)[C@@H]2O)cc1
IC50 (HepG2): > 10 µM | IC50 (Hep 3B2): 9.8 µM | IC50 (SMMC-7721; [1]): > 10 µM

COc1ccc(-c2oc3c(CC=C(C)C)c(OCCCN4CCC(N5CCCCC5)CC4)cc(O)c3c(=O)c2O[C@H]2O[C@H](C)[C@@H](O)[C@H](O)[C@@H]2O)cc1
IC50 (HepG2): 6.6 µM | IC50 (Hep 3B2): 5.6 µM | IC50 (SMMC-7721; [1]): > 10 µM

COc1ccc(-c2oc3c(CC=C(C)C)c(OCCN4CCC(C)CC4)cc(O)c3c(=O)c2O[C@H]2O[C@H](C)[C@@H](O)[C@H](O)[C@@H]2O)cc1
IC50 (HepG2): > 10 µM | IC50 (Hep 3B2): > 10 µM | IC50 (SMMC-7721; smmc-7721): Not Active

COc1ccc(-c2oc3c(CC=C(C)C)c(OC[C@H](O)CN4CCCC4)cc(O)c3c(=O)c2O[C@H]2O[C@H](C)[C@@H](O)[C@H](O)[C@@H]2O)cc1
IC50 (HepG2): > 10 µM | IC50 (Hep 3B2): > 10 µM | IC50 (SMMC-7721; [1]): > 10 µM
